Read-outs that look alike come from different tables or passages of the source.
System: TGFβ signal
Test: TGFβ signal inhibitory activity, (SBE)4-Luc reporter in A549 cells (Test Examples 1A and 1B)
Assay type: cell-based, human
Settings: Homo sapiens, A549, read-out: TGFβ inhibition rate, %
In short: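 Stable A549 line carrying (SBE)4-Luc Smad3-binding reporter treated with compound plus TGFβ-1 (2 ng/ml) for 4 hr; luciferase read by chemiluminescence. Percent inhibition relative to TGFβ-only and untreated cells, tested at 3 µM and 10 µM, some also at 1 µM.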

[1] = 3 µM, compounds of Reference Examples (Test Example 1B)
[2] = 10 µM, compounds of Reference Examples (Test Example 1B)
[3] = test compound 3 µM, TGFβ-1 2 ng/ml, 4 hr, Table 1A
[4] = test compound 10 µM, TGFβ-1 2 ng/ml, 4 hr, Table 1A
[5] = test compound 3 µM, Reference Examples, Table 1B
[6] = test compound 10 µM, Reference Examples, Table 1B

| SMILES | inhibition at 3 µM [1] [%] | inhibition at 10 µM [2] [%] | also measured |
| --- | --- | --- | --- |
| COc1cc2c(Oc3cc(C)c(C)cc3C(C)=O)ccnc2cc1OCCN1CCOCC1 [Compound r316] | 99 | 100 |  |
| COc1cc2nccc(Oc3cc(C)c(C)nc3-c3cccnc3C)c2cc1OC [Compound 44, 3-(6,7-Dimethoxy-quinolin-4-yloxy)-5,6,2'-trimethyl-[2,3']bipyridine] |  |  | inhibition at 3 µM [3]: 82%; inhibition at 10 µM [4]: 99% |
| COc1cc2nccc(Oc3cc4ccncc4nc3-c3ccccc3)c2cc1OC [Compound 98, 3-(6,7-Dimethoxy-quinolin-4-yloxy)-2-phenyl-[1,7]naphthyridine] |  |  | inhibition at 3 µM [3]: 94%; inhibition at 10 µM [4]: 100% |
| COc1cc2nccc(Oc3cc4ccccc4nc3C(=O)c3ccccc3)c2cc1OC [r279] | 98 | 100 |  |
| COc1cc2c(Oc3cc4ccccc4nc3C)ccnc2cc1CCCN1CCOCC1 [Compound r412] | 77 | 99 |  |
| COc1cc2nccc(Oc3cc4ccccc4nc3-c3ccccc3)c2cc1OC [Compound r283, 6,7-Dimethoxy-4-(2-phenyl-quinolin-3-yloxy)-quinoline] | 99 | 100 |  |
| Cc1sc2ncnc(Oc3cc4cccnc4nc3-c3ccccc3)c2c1C [Compound 78, 3-(5,6-Dimethyl-thieno[2,3-d]pyrimidin-4-yloxy)-2-phenyl-[1,8] naphthyridine] |  |  | inhibition at 3 µM [3]: 75%; inhibition at 10 µM [4]: 99% |
| COc1cc2nccc(Oc3cc4ccccc4nc3-c3cccnc3)c2cc1OC [Compound r288] | 94 | 100 |  |
| COc1cc2nccc(Oc3ccc(C)cc3C(=O)CC(C)(C)C)c2cc1OC [Compound r55] |  |  | inhibition at 3 µM [5]: 53%; inhibition at 10 µM [6]: 98% |
| Fc1ccc2nccc(Oc3cc4cccnc4nc3-c3ccccc3)c2c1 [Compound 53, 3-(6-Fluoro-quinolin-4-yloxy)-2-phenyl-[1,8]naphthyridine] |  |  | inhibition at 1 µM (test compound 1 µM, TGFβ-1 2 ng/ml, 4 hr, Table 1A): 43%; inhibition at 3 µM [3]: 83% |
| COc1cc2nccc(Oc3cc4cccnc4nc3-c3ccc(C)cc3)c2cc1OC [r428] | 67 |  |  |
| COc1cc2c(Oc3cc4ccccc4nc3C)ccnc2cc1OCCCN [Compound r376] | 100 | 100 |  |
| COc1cc2c(Oc3ccc(C)cc3C(=O)c3ccccc3)ccnc2cc1OCCCN1CCN(C)CC1 [r138] |  |  | inhibition at 3 µM [5]: 96%; inhibition at 10 µM [6]: 100% |
| COc1cc2nccc(Oc3cc4ccccc4nc3OC3CCCC3)c2cc1OC [r280] | 45 | 88 |  |
| COc1cc2nccc(Oc3ccc(C)nc3C(OC(C)=O)c3ccccc3)c2cc1OC (centres unmarked) [r218] | 21 | 56 |  |
| COc1cc2c(Oc3cc4ccccc4nc3C)ccnc2cc1OCCCNC(=N)N [Compound r377] | 93 | 100 |  |
| COc1cc2c(Oc3cc(C)c(C)nc3-c3cccc(C)n3)ccnc2cc1O [Compound r443] | 60 | 97 |  |
| COc1cc2nccc(Oc3ccc(C)nc3-c3cccc(Cl)c3)c2cc1OC [Compound r241] | 96 | 100 |  |
| CCc1ccc(Oc2ccnc3ccc(O)cc23)c(-c2ncccn2)n1 [Compound 191, 4-(6-Ethyl-2-pyrimidin-2-yl-pyridin-3-yloxy)-quinolin-6-ol] |  |  | inhibition at 3 µM [3]: 99%; inhibition at 10 µM [4]: 100% |
| COc1cc2nccc(Oc3ccc(C)nc3-c3ccc(Cl)cc3)c2cc1OC [Compound r252] | 16 | 78 |  |
| COc1cc2nccc(Oc3ccc(Br)cc3C(=O)Nc3ccc(Cl)cc3)c2cc1OC [Compound r108] |  |  | inhibition at 3 µM [5]: 0%; inhibition at 10 µM [6]: 73% |
| CCCCOc1ccc(Oc2ccnc3cc(OC)c(OC)cc23)c(C(C)=O)c1 [r180] | -2 | 55 |  |

| SMILES | inhibition at 3 µM [1] [%] | inhibition at 10 µM [2] [%] | also measured |
| --- | --- | --- | --- |
| Cc1cc(Oc2ncnc3ccc(Br)cc23)c(-c2ccccn2)nc1C [Compound 25, 6-Bromo-4-(5,6-dimethyl-[2,2']bipyridin-3-yloxy)-quinazoline] |  |  | inhibition at 3 µM [3]: 89%; inhibition at 10 µM [4]: 99% |
| COc1cc2nccc(Oc3ccc(C)cc3-c3ccno3)c2cc1OC [r12] |  |  | inhibition at 3 µM [5]: 21%; inhibition at 10 µM [6]: 89% |
| COc1cc2nccc(Oc3ccc(C)nc3-c3ccc(C(C)=O)cc3)c2cc1OC [Compound r246] | 64 | 93 |  |
| COC(=O)c1cc2c(Oc3cc4cccnc4nc3-c3ccccc3)ccnc2cc1Cl [Compound 148, Methyl 7-chloro-4-(2-phenyl-[1,8]naphthyridin-3-yloxy)-quinoline-6-carboxylate] |  |  | inhibition at 3 µM [3]: 58%; inhibition at 10 µM [4]: 98% |
| COc1cc2nccc(Oc3ccc(F)cc3C(C)=O)c2cc1OC [r33] |  |  | inhibition at 3 µM [5]: 27%; inhibition at 10 µM [6]: 94% |
| COc1cc2nccc(Oc3ccc(Cl)cc3C(=O)Nc3ccccc3)c2cc1OC [Compound r105] |  |  | inhibition at 3 µM [5]: 17%; inhibition at 10 µM [6]: 88% |
| COc1cc2nccc(Oc3ccccc3C(=O)OCCC(C)C)c2cc1OC [Compound r99] |  |  | inhibition at 3 µM [5]: 7%; inhibition at 10 µM [6]: 92% |
| COc1cc2c(Oc3cc(C)c(C)cc3C(C)=O)ccnc2cc1OCCCn1ccnc1 [Compound r321] | 100 | 100 |  |
| COc1cc2nccc(Oc3ccc(C)nc3-c3cc(C)no3)c2cc1OC [r258] | 99 | 100 |  |
| COc1cc2c(Oc3ccc(C)cc3C(=O)c3ccccc3)ccnc2cc1OCC(O)CN1CCC(N2CCCCC2)CC1 (centres unmarked) [Compound r156] |  |  | inhibition at 3 µM [5]: 99%; inhibition at 10 µM [6]: 100% |
| COc1cc2c(Oc3cc(C)c(C)nc3-c3ccccc3)ccnc2cc1OCC(O)CO (centres unmarked) [Compound r335] | 100 |  |  |
| COc1cc2c(Oc3cc4cnccc4nc3C)ccnc2cc1OCC(CO)CO [r409] | 41 | 88 |  |
| COc1cc2c(Oc3ccc(C)cc3C(=O)c3ccccc3)ccnc2cc1OCCCCn1ccnc1 [Compound r150] |  |  | inhibition at 3 µM [5]: 97%; inhibition at 10 µM [6]: 100% |
| COc1cc2nccc(Oc3ccc(C)nc3-c3ncccn3)c2cc1OC [Compound 188, 4-(6-Methyl-2-pyrimidin-2-yl-pyridin-3-yloxy)-6,7-dimethoxy-quinoline] |  |  | inhibition at 3 µM [3]: 100%; inhibition at 10 µM [4]: 100% |
| COc1cc2nccc(Oc3cc4cccnc4nc3-c3ccc(Br)cc3)c2cc1OC [Compound 85, 2-(4-Bromo-phenyl)-3'-(6,7-dimethoxy-quinolin-4-yloxy)-[1,8]naphthyridine] |  |  | inhibition at 3 µM [3]: 48%; inhibition at 10 µM [4]: 97% |
| COc1cc2nccc(Oc3cc(C)c(C)nc3-c3ncccn3)c2cc1OC [r274] | 97 |  |  |
| COc1cc2nccc(Oc3ccc(C)nc3-c3cccc(C(N)=O)c3)c2cc1OC [Compound r233] | 98 | 100 |  |
| COc1ccc(Oc2ccnc3cc(OCCN4CCOCC4)c(OC)cc23)c(C(C)=O)c1 [r120] |  |  | inhibition at 3 µM [5]: 94%; inhibition at 10 µM [6]: 100% |
| COc1cc2c(Oc3ccc(C)nc3-c3nccs3)ccnc2cc1OCc1ccccc1 [Compound r328] | 100 | 100 |  |
| COc1cc2nccc(Oc3ccc(C)nc3-c3ccc(CO)cc3)c2cc1OC [Compound r245] | 80 | 99 |  |
| COc1cc2nccc(Oc3ccc(C)nc3C(=O)c3ccccc3)c2cc1OC [Compound r220] | 99 | 100 |  |
